Assays:
[1] = system: amyloid plaques in the brains of the AD model mice; assay: Thioflavin S dyeing of amyloid plaque deposition in brains of AD model mice; format: in vivo; settings: 10 mg/kg intraperitoneal once every 2 days, 60 days
From the text: (§1) Experimental materials, purchased from Shanghai Model Organisms Center Inc, were APP/PSI transgenic AD model mice, aged 4 months old and weighing 24-26 g. The AD model mice were randomly divided into 7 groups (10 mice in each group). The 7 groups were listed as follows: A: AD model group, as a negative control group (administration of normal saline); B: cGAMP group, as a positive control group (administration of cyclic dinucleotide); C: [Li2(cGAMP)] group (administration of lithium cyclic dinucleotide prepared in Example 1); D: [Mg(cGAMP)] group (administration of magnesium cyclic dinucleotide prepared in Example 2); E: [Zn(cGAMP)] group (administration of zinc cyclic dinucleotide prepared in Example 5); F: [Mn(cGAMP)] group (administration of manganese cyclic dinucleotide prepared in Example 3); G: [Fe(cGAMP)] group (administration of ferrous cyclic dinucleotide prepared in Example 4). The administration in groups C-G was performed as follows. The powdered cyclic dinucleotide metal compounds were prepared into solutions of required concentration with normal saline, respectively. The administration dosage was 10 mg/kg, and the administration was performed via intraperitoneal injection once every 2 days for 60 consecutive days.
This example conducted a Thioflavin S dyeing experiment including the following steps. 60 days after the drug administration, brain tissues of the AD model mice were taken and subjected to fixing, paraffin embedding, section, dimethylbenzene dewaxing, gradient dehydration with ethanol and washing with tris buffered saline (TBS) three times. 0.3 wt. % of Thioflavin S (dissolved in 50 wt. % of ethanol) was dropped onto the brain tissues. The brain tissues were incubated for 10 min followed by washing with 50 wt. % of ethanol, PBS-washing, shade drying and sealing. A laser scanning confocal microscope (Leica, Germany) was used to detect changes of an amount of amyloid plaque deposition in the brains of the AD model mice.

T(CD8+) cells = assay: Flow cytometry of CD8+ T cells in spleen and lung after immunization; format: in vivo, C57BL/6 ordinary mice; settings: after 14 days of immunization
From the text: (§2) Experimental animals: C57BL/6 ordinary mice, male, weighing 20-22 grams, 7-8 weeks old, purchased from Shanghai SLAC Laboratory Animal Co. Ltd.
(§3) The mice were randomly divided into 8 groups (10 mice in each group). The 8 groups were as listed follows: A: Negative control group (isotype control antibody group); B: blank group; C: cyclic dinucleotide group; D: [Li2(cGAMP)] group; E: [Mg(cGAMP)] group; F: [Zn(cGAMP)] group; G: [Mn(cGAMP)] group; and H: [Fe(cGAMP)] group. Isotype control flow antibody was purchased from eBiosciences, antibody magnetic strain was purchased from Militeny Biotech, and flow cytometry was purchased from BD company. After 14 days of immunization (immunization process was the same as that in the Example 12), spleens and lung tissues of the mice were collected, respectively mashed, filtered through 40 micron pores followed by 1000 rpm of centrifugation for 10 min to solate unlysed immune cells. Dendritic cells (DCs) (CD40\CD80\CD86\MHCII), T(CD8+) cells were separated, and added with corresponding FAC antibodies (diluted with Fluorescence-Activated Cell Sorting (FACS) buffer). Isotype control antibody was used as negative control. After antibody addition, the DCs and T (CD8+) cells were incubate for 1 h, centrifuged and washed by phosphate buffer saline (PBS) followed by analysis by the flow cytometry to sort suitable cells. Fluorescence intensity (MFI) of sorted cells was measured.

[2] = system: APP/PSI transgenic AD model mice; assay: Morris water maze spatial probe test, cognitive ability of AD model mice; format: in vivo; settings: 10 mg/kg intraperitoneal injection once every 2 days for 60 days
From the text: as §1
The Morris water maze test was performed in a round pool, 1 m in diameter, 50 cm high and 30 cm deep with a white bottom of the pool. Water temperature of the Morris water maze was 23±2° C. Four equidistant points, N, E, S and W, were marked on a pool wall as four starting points for tests. The pool was divided into four quadrants, and a platform, which was equidistant from the pool wall and a center of the pool, was placed in the third quadrant. The platform was immersed under water at a depth of 1 cm, so that the platform was not visible. A lot of reference clues (the reference clues were triangles, quadrangles, circles, and diamonds with different colors placed in each quadrant) were pasted around the pool and kept constant for the AD model mice to locate the platform.
A place navigation test was performed for 6 days, and the AD model mice were subjected to training 4 times per day at fixed time spans. At the beginning of the training, the platform was placed in the […]. An AD model mouse was placed into the water facing the pool wall at any one of the four starting points. A record system was used to record time and a swimming path that the AD model mouse found the platform. The AD model mouse was placed into the water at different four starting points (in different quadrants) in the 4-time-training. The AD model mouse found the platform and rested on the platform for 10 seconds followed by next test. Or if the AD model mouse could not find the platform within 90 seconds (a latency was recorded as 90 seconds), the AD model mouse was guided to the platform by an experimenter and rested for 10 seconds followed by next test.
24 h after the place navigation test, the platform was removed. Then the AD model mouse was placed into the water in the third quadrant, the swimming path in 180 s was recorded. Remain time and a number of the AD model mouse crossing through a location of the platform of the AD model mouse in a target quadrant (the third quadrant) were recorded to observe the spatial localization ability of the AD model mouse. SPSS10.0 software was used to process, and one-way analysis of variance (ANOVA) was adopted to compare significance of difference between the 7 groups.

[3] = system: Dendritic cells (DCs) (CD40\CD80\CD86\MHCII); assay: Flow cytometry of dendritic cell activation markers after immunization; format: in vivo, C57BL/6 ordinary mice; settings: fluorescence intensity (MFI), after 14 days of immunization
From the text: as §2, §3

Row | Structure (SMILES) | Average points of amyloid plaque fluorescence intensity in the brain tissues of the AD mice (field of vision) [1] | Lung (% CD8 + T cells) (T(CD8+) cells) [%] | Spleen (% CD8 + T cells) (T(CD8+) cells) [%] | Percentage of time of the AD model mice crossing through the platform in the third quadrant [2] [%] | Spleen CD40 [3] | Spleen CD80 [3] | Spleen CD86 [3] | Spleen MGCII [3]
1 | Nc1nc2c(ncn2[C@@H]2O[C@@H]3COP(=O)([O-])O[C@H]4[C@@H](O)[C@H](n5cnc6c(N)ncnc65)O[C@@H]4COP(=O)([O-])O[C@@H]2[C@@H]3O)c(=O)[nH]1.[Zn+2] [[Zn(cGAMP)], zinc cyclic dinucleotide] | 360 ± 75 | 1.6 ± 0.2 | 8.6 ± 1.8 | 0.86 ± 0.16 | 264.7 | 245.7 | 42.6 | 424.5
2 | Nc1nc2c(ncn2C2OC3COP(=O)([O-])OC4C(COP(=O)([O-])OC2C3O)OC(n2cnc3c(N)ncnc32)C4O)c(=O)[nH]1.[Fe+2] (stereo not drawn) [[Fe(cGAMP)], ferrous cyclic dinucleotide] | 410 ± 91 | 0.7 ± 0.3 | 6.9 ± 1.2 | 0.81 ± 0.23 | 236.8 | 134.6 | 24.1 | 247.1
3 | Nc1nc2c(ncn2[C@@H]2O[C@@H]3COP(=O)([O-])O[C@H]4[C@@H](O)[C@H](n5cnc6c(N)ncnc65)O[C@@H]4COP(=O)([O-])O[C@@H]2[C@@H]3O)c(=O)[nH]1.[Li+].[Li+] [[Li2(cGAMP)], lithium cyclic dinucleotide] | 165 ± 75 | 0.6 ± 0.2 | 3.1 ± 0.3 | 0.91 ± 0.18 | 136.2 | 157.6 | 21.7 | 250.8
4 | Nc1nc2c(ncn2[C@@H]2O[C@@H]3COP(=O)(O)O[C@H]4[C@@H](O)[C@H](n5cnc6c(N)ncnc65)O[C@@H]4COP(=O)(O)O[C@@H]2[C@@H]3O)c(=O)[nH]1 [cGAMP, 2′3′-cGAMP, reference compound] | 1790 ± 180 | 0.5 ± 0.2 | 2.2 ± 0.2 | 0.62 ± 0.17 | 120.5 | 112.1 | 16.5 | 208.1
5 | Nc1nc2c(ncn2[C@@H]2O[C@@H]3COP(=O)([O-])O[C@H]4[C@@H](O)[C@H](n5cnc6c(N)ncnc65)O[C@@H]4COP(=O)([O-])O[C@@H]2[C@@H]3O)c(=O)[nH]1.[Mg+2] [[Mg(cGAMP)], magnesium cyclic dinucleotide] | 480 ± 80 | 1.7 ± 0.3 | 6.2 ± 0.6 | 0.78 ± 0.10 | 156.6 | 234.6 | 36.8 | 338.2
6 | Nc1nc2c(ncn2C2OC3COP(=O)([O-])OC4C(COP(=O)([O-])OC2C3O)OC(n2cnc3c(N)ncnc32)C4O)c(=O)[nH]1.[Mn+2] (stereo not drawn) [[Mn(cGAMP)], manganese cyclic dinucleotide] | 390 ± 87 | 0.8 ± 0.3 | 7.5 ± 1.3 | 0.83 ± 0.21 | 255.9 | 132.6 | 26.3 | 276.3
